Results on ten molecules are retold here after patent US5026882A, “Phosphinic acid substituted steroids as inhibitors of steroid 5α-reductase” (priority 1988, dated 1991).

Assay [1] deals with steroid 5α-reductase. The settings on record: cited from earlier work; for Reversible / Irreversible inhibition: Table 1, in words beside Ki; for Ki: Table 1, literature references.
For assay [2], the target named is T1, Human Prostatic Steroid 5α-Reductase (Homo sapiens, UniProt P31213).
T1 construct: Prostatic particles were obtained by differential centrifugation; from tissue; host or cells: frozen human prostates (hyperplastic), 140,000 × g particulate fraction
T1 sequence (P31213 1-254): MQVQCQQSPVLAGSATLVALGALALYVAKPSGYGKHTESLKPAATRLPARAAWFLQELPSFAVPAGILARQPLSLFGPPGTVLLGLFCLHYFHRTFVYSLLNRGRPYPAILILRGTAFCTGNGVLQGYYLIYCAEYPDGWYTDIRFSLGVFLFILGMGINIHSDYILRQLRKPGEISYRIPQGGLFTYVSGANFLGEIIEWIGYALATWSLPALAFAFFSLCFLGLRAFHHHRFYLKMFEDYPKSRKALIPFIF
Put plainly: Inhibition of human steroid 5α-reductase using tissue from hyperplastic human prostates ([14C]-testosterone conversion, Dixon analysis). The format is biochemical. Here is the method:
Such diseases and conditions include acne vulgaris, seborrhea, female hirsutism, prostate diseases such as benign prostatic hypertrophy, and male pattern baldness. several compounds of the invention were tested for potency in inhibiting human steroid 5α-reductase using tissue from hyperplastic human prostates. In determining potency in inhibiting the human enzyme, the following procedure was employed:
Frozen human prostates were thawed and minced into small pieces (5 mm^3). The tissue was homogenized in 3 to 5 volumes of 20 mM potassium phosphate, pH 6.5, buffer containing 0.33 M sucrose, 1 mM dithiothreitol, and 50 μM NADPH with a Brinkmann Polytron (Sybron Corporation, Westbury, N.Y.). The solution was subjected to sonication for 3 to 5 minutes with a Sonifier (Branson Sonic Power Co.) followed by hand homogenization in a glass-to-glass Dounce homogenizer (Kontes Glass Company, Vineland, N.J.).
Prostatic particles were obtained by differential centrifugation at 600 to 1000 × g for 20 minutes and 140,000 × g for 60 minutes at 4° C. The pellet obtained from the 140,000 × g centrifugation was washed with 5 to 10 tissue volumes of the buffer described above and recentrifuged at 140,000 × g. The resulting pellet was suspended in 20 mM potassium phosphate buffer, pH 6 5, containing 20% glycerol, 1 mM dithiothreitol, and 50 μM NADPH. The suspended particulate solution was stored at -80° C.
A constant amount of [^14 C]-testosterone (52 to 55 mCi/mmol, New England Nuclear, Boston, Mass.) in ethanol and varying amounts of the potential inhibitor in ethanol were deposited in test tubes and concentrated to dryness in a SAVANT Speed Vac. To each tube was added buffer, 20 μl of 10 mM NADPH and an aliquot of prostatic particulate solution to a final volume of 1.0 ml of 50 mM sodium citrate, pH 5.0. After incubating the solution at 37° C. for 20 to 30 minutes the reaction was quenched by the addition of 4 ml ethyl acetate and 0.25 μmol each of testosterone, dihydrotestosterone, androst-aneidiol, and androst-anedione as carriers. The organic layer was removed to a second test tube and evaporated to dryness in a Speed Vac. The residue was dissolved in 20 to 30 μl chloroform, spotted on an individual lane of a 20×20 cm prechannelled silica gel TLC plate (Si 250F-PA, Baker Chemical) and developed twice with acetone:chloroform (1:9). The radiochemical content in the bands of the substrate and the products was determined with a BIOSCAN Imaging Scanner (Bioscan, Inc., Washington, D.C.). The percent of recovered radiolabel converted to product was calculated, from which enzyme activity was determined. All incubations were conducted such that no more than 12% of the substrate (testosterone) was consumed.
The experimentally obtained data was computer fitted to a linear function by plotting the reciprocal of the enzyme activity (1/velocity) against the variable inhibitor concentration (Dixon, M. (1953), Biochem. J., 55, 170). Assuming that the steroidal inhibitor is a competitive inhibitor against testosterone, a value for the inhibition constant (Ki) can be calculated from equation 1:
Ki =(B/A)/(S/Km +1) Equation 1

Assay [3] relates to human steroid 5α-reductase. The following applies: read-out: Km (Michaelis-Menton constant of the substrate); testosterone as substrate. An excerpt:
where B is the intercept on the 1/velocity axis, A is the slope of the line, S is the concentration of substrate (testosterone) used in the experiment, and Km is the Michaelis-Menton constant of the substrate (testosterone)

The mark [4] stands for this setting: human prostatic particulate, pH 5.0, 37° C., 20 to 30 minutes, competitive inhibition against testosterone assumed, read-out: Ki , app.

Like-named read-outs stand apart in the source and are kept apart here.

For the molecule `C[C@]12CC[C@H]3[C@@H](CCC4=CC(=O)CC[C@@]43C)[C@@H]1CC[C@@H]2C(=O)O`, in assay [1], the “Reversible / Irreversible inhibition” value was “Reversible” and the Ki is 1100 nM.

With `CC(=O)[C@H]1CC[C@H]2[C@@H]3CC=C=CC(=O)CCC(=O)[C@H]3CC[C@]12C`, in assay [1], the “Reversible / Irreversible inhibition” value is “Irreversible” and the Ki is 1000 nM.

With `CC(CO)[C@H]1CC[C@H]2[C@@H]3CC[C@H]4C(=[N+]=[N-])C(=O)CC[C@]4(C)[C@H]3CC[C@]12C` (some centres unmarked), in assay [1], the “Reversible / Irreversible inhibition” value is recorded as “Irreversible” and the Ki was 3.5 nM. The “time dependence of inhibition (in words)” value in assay [1] (literature) is “potent, time-dependent inhibitor”.

In the case of `CC(C)N(C(=O)[C@H]1CC[C@H]2[C@@H]3CC=C4C=C([PH](=O)O)CC[C@]4(C)[C@H]3CC[C@]12C)C(C)C` [Example 1, 17β-N,N-Diisopropylcarboxamido-androst-3,5-diene-3-phosphinic acid], in assay [2] (setting [4]), the Ki was 7 nM.

As for `CC(C)(C)NC(=O)[C@H]1CC[C@H]2[C@@H]3CC=C4C=C([PH](=O)O)CC[C@]4(C)[C@H]3CC[C@]12C` [Example 2, 17β-N-t-Butylcarboxamide-androst-3,5-diene-3-phosphinic acid], in assay [2] (setting [4]), the Ki came out at 35 nM.

In assay [2], `CC(C)N(C(=O)[C@H]1CC[C@H]2[C@@H]3CC[C@H]4CC([PH](=O)O)=CC[C@]4(C)[C@H]3CC[C@]12C)C(C)C` [Example 3, 17β-N,N-Diisopropylcarboxamide-5α-androst-2-ene-3-phosphinic Acid] showed a Ki of 15 nM.

`CC(C)N(C(=O)[C@H]1CC[C@H]2[C@@H]3CC[C@H]4C=C([PH](=O)O)CC[C@]4(C)[C@H]3CC[C@]12C)C(C)C` [Example 5, 17β-N,N-Diisopropylcarboxamido-5α-androst-3-ene-3-phosphinic acid]: the Ki in assay [2] (setting [4]) stood at 25 nM.

The molecule `CC(C)N(C(=O)[C@H]1CC[C@H]2[C@@H]3CCC4=CC([PH](=O)O)=CC[C@]4(C)[C@H]3CC[C@]12C)C(C)C` [Example 7, 7β-N,N-Diisopropylcarboxamido-androst-2,4-diene-3-phosphinic acid] registered a Ki in assay [2] of 20 nM.

For the molecule `CC(C)N(C(=O)[C@H]1CC[C@H]2[C@@H]3CC=C4C=C(P(C)(=O)O)CC[C@]4(C)[C@H]3CC[C@]12C)C(C)C` [Example 9, 17β-N,N-diisopropylcarboxamido-androst-3,5-diene-3-methylphosphinic acid], in assay [2] (setting [4]), the Ki worked out at 55 nM.

Consider `C[C@]12CC[C@H]3[C@@H](CCC4=CC(=O)CC[C@@]43C)[C@@H]1CC[C@@H]2O` [testosterone], for which, in assay [3], the Km – broadly, the substrate concentration at which the rate is half of its maximum – amounted to 4.5 µM.
